# pIC50: −log10 of the molar value. Read-outs that look alike come from different tables or passages of the source.
# Tests used:
# human PBMCs [1] = details: 7 days
# in vitro = details: human
# [2] = system: HIV-1 macrophage-tropic virus strains
# [3] = system: HIV-1 macrophage-tropic virus strains; assay: microbe, parasite or virus in culture
# HIV-1 clinical isolates [4] = assay: microbe, parasite or virus in culture; details: Human immunodeficiency virus 1, PBMC
# [5] = system: drug-resistant HIV-1 isolates; assay: Anti-HIV efficacy in fresh human PBMCs, drug-resistant HIV-1 isolates; details: for pIC50: Human immunodeficiency virus 1, PBMC, in Homo sapiens
# HIV-2 CDC 310319 = assay: microbe, parasite or virus in culture; details: Human immunodeficiency virus 2, PBMC
# human PBMCs [6] = assay: MTS staining for PBMC viability (cytotoxicity); details: read-out: TC50, PBMCs, MTS
# [7] = MTS staining for PBMC viability (cytotoxicity); details: human
# [8] = MTS cytotoxicity in monocyte/macrophage cultures; assay type: cell-based; details: human, fresh adherent monocyte/macrophage cultures, HIV-infected, macrophages, MTS, read-out: TC50
# Method: Anti-HIV Efficacy Evaluation in Fresh Human Monocyte/Macrophage. Monocytes/macrophages were allowed to adhere to the interior 60 wells of a 96 well flat bottomed plate for 2 to 18 hours at 37° C., 5% CO2. Following 6 to 14 days in culture, the monocyte/macrophage cultures were washed 3 times to remove any non-adherent cells and serially diluted test compounds were added followed by the addition of a pre-titered amount of HIV. Cultures were washed a final time by media removal 24 hours post infection, fresh compound added and the cultures continued for an additional six days. […] At assay termination, virus replication was measured by collecting cell-free supernatant samples which were analyzed for HIV p24 antigen content using a commercially available p24 ELISA assay (Coulter). […] MTS staining for PBMC viability to measure cytotoxicity. […] The mitochondrial enzymes of metabolically active cells metabolize MTS to yield a soluble formazan product. This allows the rapid quantitative analysis of cell viability and compound cytotoxicity. […] At termination of the assay, 20 μL of MTS reagent was added per well. The microtiter plates were then incubated 4-6 hrs at 37° C. The incubation intervals were chosen based on empirically determined times for optimal dye reduction. […] Data analysis.
# HIV-1 clinical isolates [9] = system: HIV-1 clinical isolates
molecule,measurement,setting,value
enfuvirtide,CC50,human PBMCs [1],> 10 µM
same,CC50 at 7 days,in vitro,> 10 µM
"O=C1Nc2ccc(Cl)cc2[C@@](C#CC2CC2)(C(F)(F)F)O1 [Efavirenz, efavirenz]",TI (TC50/IC50),[2]; HIV-1 ADA in macrophages,>2793.3
same,TI (TC50/IC50),[2]; HIV-1 Ba-L in macrophages,>4717.0
same,pIC50,"[3]; Human immunodeficiency virus 1, BAL, Macrophage",8.67
same,pIC50,"[3]; Human immunodeficiency virus 1, Macrophage",8.45
same,CC50,human PBMCs [1],> 1 µM
same,pIC50,"HIV-1 clinical isolates [4]; HIV-1 96USHIPS7 (subtype /B, R5) in PBMCs",9.19
same,pIC50,"HIV-1 clinical isolates [4]; HIV-1 BR/92/021 (subtype B/B, R5) in PBMCs",7.33
same,pIC50,"HIV-1 clinical isolates [4]; HIV-1 BR/93/017 (subtype B/B, R5) in PBMCs",9.24
same,pIC50,"HIV-1 clinical isolates [4]; HIV-1 BR/93/020 (subtype F/F, R5/X4) in PBMCs",9.49
same,pIC50,"HIV-1 clinical isolates [4]; HIV-1 BR/93/022 (subtype /B, R5) in PBMCs",9.21
same,pIC50,"HIV-1 clinical isolates [4]; HIV-1 CMU 02 (subtype /EA, X4) in PBMCs",8.74
same,pIC50,"HIV-1 clinical isolates [4]; HIV-1 JV 1083 (subtype /G, R5) in PBMCs",9.19
same,pIC50,"HIV-1 clinical isolates [4]; HIV-1 RW/92/016 (subtype A/A, R5) in PBMCs",9.21
same,pIC50,"HIV-1 clinical isolates [4]; HIV-1 UG/92/046 (subtype D/D, X4) in PBMCs",8.92
same,TI (TC50/IC50),[5]; HIV-1 52-52 in PBMCs,>9901.0
same,TI (TC50/IC50),[5]; HIV-1 144-44 in PBMCs,>1666.7
same,TI (TC50/IC50),[5]; HIV-1 1002-60 in PBMCs,>4761.9
same,TI (TC50/IC50),[5]; HIV-1 1064-52 in PBMCs,>3448.3
same,TI (TC50/IC50),[5]; HIV-1 MDR 769 in PBMCs,>1851.9
same,TI (TC50/IC50),[5]; HIV-1 MDR 807 in PBMCs,>1408.5
same,pIC50,[5]; HIV-1 52-52 (protease-inhibitor resistant) in PBMCs,> 10.00
same,pIC50,"[5]; against several viruses (e.g., MDR 1385, MDR 3761) in PBMCs",< 6.00
same,pIC50,[5]; multi-drug-resistant HIV-1 MDR 769 in PBMCs,9.27
same,pIC50,[5]; multi-drug-resistant HIV-1 MDR 807 in PBMCs,9.15
same,pIC50,[5]; multi-drug-resistant HIV-1 MDR 1385 in PBMCs,< 6.00
same,pIC50,[5]; multi-drug-resistant HIV-1 MDR 3761 in PBMCs,< 6.00
same,pIC50,HIV-2 CDC 310319,< 6.00
same,CC50,human PBMCs [6]; 52-52 assay,> 1 µM
same,CC50,human PBMCs [6]; 144-44 assay,> 1 µM
same,CC50,human PBMCs [6]; 1002-60 assay,> 1 µM
same,CC50,human PBMCs [6]; 1064-52 assay,> 1 µM
same,CC50,human PBMCs [6]; BFC01 assay,> 1 µM
same,CC50,human PBMCs [6]; BR/92/021 assay,> 1 µM
same,CC50,human PBMCs [6]; BR/92/025 assay,> 1 µM
same,CC50,human PBMCs [6]; BR/93/017 assay,> 1 µM
same,CC50,human PBMCs [6]; BR/93/020 assay,> 1 µM
same,CC50,human PBMCs [6]; BR/93/022 assay,> 1 µM
same,CC50,human PBMCs [6]; CMU 02 assay,> 1 µM
same,CC50,human PBMCs [6]; HIV-2 CDC 310319 assay,> 1 µM
same,CC50,human PBMCs [6]; JV 1083 assay,> 1 µM
same,CC50,human PBMCs [6]; RW/92/016 assay,> 1 µM
same,CC50,human PBMCs [6]; UG/92/046 assay,> 1 µM
same,CC50 at 7 days,[7],> 1 µM
same,CC50 at 7 days,[8]; ADA assay,> 10 µM
same,CC50 at 7 days,[8]; Ba-L assay,> 10 µM
same,TI (TC50/IC50),HIV-1 clinical isolates [9]; HIV-1 96USHIPS7 in PBMCs,>1538.5
same,TI (TC50/IC50),HIV-1 clinical isolates [9]; HIV-1 BFC01 in PBMCs,>1449.3
same,TI (TC50/IC50),HIV-1 clinical isolates [9]; HIV-1 BR/92/021 in PBMCs,>21.3
same,TI (TC50/IC50),HIV-1 clinical isolates [9]; HIV-1 BR/92/025 in PBMCs,>3333.3
same,TI (TC50/IC50),HIV-1 clinical isolates [9]; HIV-1 BR/93/017 in PBMCs,>1724.1
same,TI (TC50/IC50),HIV-1 clinical isolates [9]; HIV-1 BR/93/020 in PBMCs,>3125.0
same,TI (TC50/IC50),HIV-1 clinical isolates [9]; HIV-1 BR/93/022 in PBMCs,>1612.9
same,TI (TC50/IC50),HIV-1 clinical isolates [9]; HIV-1 CMU 02 in PBMCs,>549.5
same,TI (TC50/IC50),HIV-1 clinical isolates [9]; HIV-1 JV 1083 in PBMCs,>1538.5
same,TI (TC50/IC50),HIV-1 clinical isolates [9]; HIV-1 RW/92/016 in PBMCs,>1639.3
same,TI (TC50/IC50),HIV-1 clinical isolates [9]; HIV-1 UG/92/046 in PBMCs,>840.3
